From patent US20110306671A1, “AMIDE DERIVATIVES OF ETHACRYNIC ACID” (The Regents of the The University of California, priority 2008, published 2011)

Key:
Type in all cases: cell-based
Details in all cases: Homo sapiens, mean of at least two experiments
[1] = test system: LNCap; assay: Cytotoxicity of EA in tumor cell line LNCap
[2] = test system: A549; assay: Cytotoxicity of EA in tumor cell line A549
[3] = test system: RAMOS; assay: Cytotoxicity of EA in tumor cell line RAMOS

With `C=C(CC)C(=O)c1ccc(OCC(=O)O)c(Cl)c1Cl` [Compound 1, Ethacrynic acid] the IC50 [1] was 46 µM, the IC50 [2] was 178 µM and the IC50 [3] was 174 µM.
